Experimental data from US7429663B2, “7-(Pyrimidin-4-yl)-Imidazo[1,2-a]Pyrimidin-5(1H)-ones as GSK3β inhibitors” (Sanofi-Aventis, priority 2002, dated 2008).

Tests used:
GSK3β = GSK3β (Homo sapiens, UniProt P49841); assay: Inhibitory activity against GSK3β (33P-ATP phosphorylation of prephosphorylated GS1 peptide, two protocols); type: biochemical; settings: first or second protocol not specified
Method: Inhibitory Activity of the Medicament of the Present Invention Against GSK3β Two different protocols can be used. In a first protocol : 7.5 μM of prephosphorylated GS1 peptide and 10 μM ATP (containing 300,000 cpm of 33P-ATP) were incubated in 25 mM Tris-HCl, pH 7.5, 0.6 mM DTT, 6 mM MgCl2, 0.6 mM EGTA, 0.05 mg/ml BSA buffer for 1 hour at room temperature in the presence of GSK3β (total reaction volume : 100 microliters). In a second protocol : 4.1 μM of prephosphorylated GS1 peptide and 42 μM ATP (containing 260,000 cpm 33P-ATP) were incubated in 80 mM Mes-NaOH, pH 6.5, 1 mM Mg acetate, 0.5 mM EGTA, 5 mM 2-mercaptoethanol, 0.02% Tween 20, 10% glycerol buffer for 2 hours at room temperature in the presence of GSK3β. Inhibitors were solubilised in DMSO (final solvent concentration in the reaction medium, 1%). The reaction was stopped with 100 microliters of a solution made of 25 g polyphosphoric acid (85% P2O5), 126 ml 85% H3PO4, H2O to 500 ml and then diluted to 1:100 before use. An aliquot of the reaction mixture was then transferred to Whatman P81 cation exchange filters and rinsed with the solution described above. Incorporated 33P radioactivity was determined by liquid scintillation spectrometry. The phosphorylated GS-1 peptide had the following sequence: NH2-[…](P)EDEE-COOH. […]

Chain of GSK3β (P49841 whole entry, species assumed): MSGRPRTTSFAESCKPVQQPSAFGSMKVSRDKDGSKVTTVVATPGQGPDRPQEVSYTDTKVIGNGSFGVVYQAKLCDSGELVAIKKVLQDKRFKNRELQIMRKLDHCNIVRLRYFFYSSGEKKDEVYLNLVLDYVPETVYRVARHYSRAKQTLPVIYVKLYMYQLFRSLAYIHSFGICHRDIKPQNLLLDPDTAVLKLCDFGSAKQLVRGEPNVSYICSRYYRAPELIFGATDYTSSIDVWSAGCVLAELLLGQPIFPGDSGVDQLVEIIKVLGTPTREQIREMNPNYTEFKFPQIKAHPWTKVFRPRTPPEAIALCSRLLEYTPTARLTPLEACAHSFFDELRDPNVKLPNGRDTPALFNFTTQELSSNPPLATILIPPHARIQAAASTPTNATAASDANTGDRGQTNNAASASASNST

| melting point | IC50 (GSK3β) | SMILES |
| --- | --- | --- |
| 215 to 217 °C | 21 nM | O=c1cc(-c2ccncn2)nc2n(CCc3cccc4ccccc34)ccn12 [compound 6, 1-(2-Naphthalen-1-yl-ethyl)-7-(pyrimidin-4-yl)-1H-imidazo[1,2-a]pyrimidin-5-one] |
| 159 to 161 °C |  | O=c1cc(-c2ccncn2)nc2n(CC(O)c3ccccc3)ccn12 (stereo not shown) [compound 11, 1-(2-Hydroxy-2-phenyl-ethyl)-7-(pyrimidin-4-yl)-1H-imidazo[1,2-a]pyrimidin-5-one] |
| 240 to 242 °C |  | O=C(Cn1ccn2c(=O)cc(-c3ccncn3)nc12)c1ccccc1 [compound 12, 1-(2-Oxo-2-phenyl-ethyl)-7-(pyrimidin-4-yl)-1H-imidazo[1,2-a]pyrimidin-5-one] |
